From patent US8772500B2, “TRPV3 modulators” (AbbVie Inc., priority 2011, dated 2014)
pIC50: −log10 of the molar value.

Tests used:
[1] = target: T1, human TRPV3 (Homo sapiens, UniProt Q8NET8); assay: In vitro antagonism of recombinant human TRPV3 activation (FLIPR Tetra calcium assay, 2-APB as agonist); type: cell-based; details: HEK293 cells stably expressing human TRPV3; 2-APB 80 μM; range class; read-out: IC50 (reported range)
T1 construct: expressed in transfected cells
T1 sequence (Q8NET8 1-790): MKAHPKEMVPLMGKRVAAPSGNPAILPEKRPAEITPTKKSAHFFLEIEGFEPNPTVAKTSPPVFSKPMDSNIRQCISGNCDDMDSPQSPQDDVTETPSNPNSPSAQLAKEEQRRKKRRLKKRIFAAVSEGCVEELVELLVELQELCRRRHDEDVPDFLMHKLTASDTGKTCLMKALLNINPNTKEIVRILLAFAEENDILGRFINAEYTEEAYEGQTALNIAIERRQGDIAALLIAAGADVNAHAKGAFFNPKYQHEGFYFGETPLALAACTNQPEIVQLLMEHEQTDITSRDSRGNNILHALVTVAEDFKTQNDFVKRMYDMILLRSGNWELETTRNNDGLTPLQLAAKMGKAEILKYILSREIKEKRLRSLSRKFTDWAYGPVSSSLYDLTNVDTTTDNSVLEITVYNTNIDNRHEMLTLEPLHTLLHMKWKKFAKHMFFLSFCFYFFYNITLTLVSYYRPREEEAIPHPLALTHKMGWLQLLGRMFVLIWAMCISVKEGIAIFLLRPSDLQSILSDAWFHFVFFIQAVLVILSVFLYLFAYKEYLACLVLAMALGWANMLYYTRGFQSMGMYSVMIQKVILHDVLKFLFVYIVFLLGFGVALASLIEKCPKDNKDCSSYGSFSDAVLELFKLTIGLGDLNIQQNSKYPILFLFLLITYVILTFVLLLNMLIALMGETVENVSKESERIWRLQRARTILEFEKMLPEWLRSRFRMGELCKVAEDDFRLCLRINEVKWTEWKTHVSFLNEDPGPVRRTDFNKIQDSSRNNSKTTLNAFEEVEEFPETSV
Procedure: Test compounds were evaluated for ability to antagonize the activation of recombinant human TRPV3 using FLIPR® Tetra cellular screening. Specifically, on the day prior to the experiment recombinant HEK293 cells that stably express human TRPV3 were removed from tissue culture flasks and plated in growth medium at 20,000 cells/well into Poly-d-lysine coated black/clear 384-well Plate (Corning, 3845) using a Multidrop® dispenser (ThermoScientific, Waltham, Mass.). Prior to the start of the assay, the medium was removed by aspiration, and cells were loaded with 30 μL no-wash FLIPR® Calcium-4 dye (λEX=470-495 nm, λEM=515-575 nm; Molecular Devices, Sunnyvale, Calif.). The cells were then incubated for 90-120 minutes in the dark prior to addition of the test compound.
A double-addition protocol was used. The test compound (i.e., the TRPV3 antagonist) was added at the 10 second time point, followed by the addition of a TRPV3 agonist three minutes later. Each test compound evaluated was first dissolved in DMSO to prepare a 10 mM stock solution. A solution (5×) of the test compound was then prepared in DPBS (Dulbecco's Phosphate Buffered Saline) and 10 μL of that solution was added to the cells at a delivery rate of 40 μL/sec. The TRPV3 agonist used to activate human TRPV3 expressed by the […] was 2-aminoethoxy-diphenyl borate (2-APB; Tocris Cookson, Ellisville, Mo.) at 80 μM. Final assay volume was 50 μL. Total length of an experimental run was 10 minutes.
Changes in fluorescence were measured over time using the FLIPR® instrument. The intensity of the fluorescence was captured and digitally transferred to an interfaced computer. The maximum response minus minimum response was calculated and expressed as the percentage of the maximum 2-APB response in the absence of antagonist. The concentration of 2-APB corresponds to its EC80.
Table 1 reports the IC50 values measured for the test compounds as human TRPV3 antagonists. […] Actual measured values are shown parenthetically after the reported range. In most cases, the values reported are average values from at least two runs (i.e., n≧2).

[2] = In vitro human microsomal stability assay; type: in vitro ADME; details: human, 0.5 h, 0.5 μM, pH 7.4
Summary of the method: (§1)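 Rat (Sprague-Dawley) and human liver microsomes were incubated with test compound and NADPH at 37 °C. Time-zero samples also received NADPH.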

[3] = In vitro rat microsomal stability assay; type: in vitro ADME, rat (Sprague-Dawley); details: Sprague-Dawley, rat, 0.5 h, 0.5 μM, pH 7.4
Summary of the method: as §1

Row | Structure (SMILES) | pIC50 [1] | HUMAN MICROSOMAL STABILITY (% REMAINING AFTER 30 MINUTES) [2] [%] | RAT MICROSOMAL STABILITY (% REMAINING AFTER 30 MINUTES) [3] [%]
1 | O[C@H](c1ccccn1)C1(c2ccnc(C(F)(F)F)c2)CCC1 [Example 240, (S)-pyridin-2-yl{1-[2-(trifluoromethyl)pyridin-4-yl]cyclobutyl}methanol] | 6.00 to 6.30 | 50 | 38
2 | OC(c1ccccn1)C1(c2ccc(OC(F)(F)F)cc2)CCCO1 (stereo not drawn) [Example 94, (anti)-pyridin-2-yl{2-[4-(trifluoromethoxy)phenyl]tetrahydrofuran-2-yl}-methanol] | 6.30 to 7.30 | 55 | 3.8
3 | N[C@@H]1CCC[C@H]1[C@@H](O)C1(c2cccc(C(F)(F)F)c2)CCC1 [Example 227, (R)-[(1R,2R)-2-aminocyclopentyl]{1-[3-(trifluoromethyl)phenyl]-cyclobutyl}methanol] | 6.30 to 7.30 | >85 | 42
4 | Nc1cccnc1C(O)C1(c2ccc(C(F)(F)F)cc2)CCC1 (stereo not drawn) [Example 127, (3-aminopyridin-2-yl){1-[4-(trifluoromethyl)phenyl]cyclobutyl}methanol] | 4.70 to 5.29 | 51 | 1.1
5 | CC(C)(C)OC(=O)N1CC(c2ccc(C(F)(F)F)cc2)(C(O)c2ccccn2)C1 (stereo not drawn) [Example 153, tert-butyl 3-[hydroxy(pyridin-2-yl)methyl]-3-[4-(trifluoromethyl)phenyl]-azetidine-1-carboxylate] | 4.70 to 5.29 | 49 | 21
6 | OC(c1ccccn1)C1(c2ccc(OC(F)(F)F)cc2)CC(F)(F)C1 (stereo not drawn) [Example 112, {3,3-difluoro-1-[4-(trifluoromethoxy)phenyl]cyclobutyl}(pyridin-2-yl)-methanol] | 6.30 to 7.30 | 75 | 75
7 | OC(c1ccccn1)C1(c2ccc(C(F)(F)F)cn2)CC(F)(F)C1 (stereo not drawn) [Example 137, {3,3-difluoro-1-[5-(trifluoromethyl)pyridin-2-yl]cyclobutyl}(pyridin-2-yl)-methanol] | 5.30 to 5.96 | 77 | >85
8 | OC1CC(c2cncc(C(F)(F)F)c2)(C(O)c2ccccn2)C1 [Example 304, trans-3-[(S)-hydroxy(pyridin-2-yl)methyl]-3-[5-(trifluoromethyl)pyridin-3-yl]cyclobutanol] | 6.30 to 7.30 | >85 | 44
9 | OC1CC(c2cncc(C(F)(F)F)c2)(C(O)c2ccccn2)C1 [Example 303, cis-3-[(S)-hydroxy(pyridin-2-yl)methyl]-3-[5-(trifluoromethyl)pyridin-3-yl]-cyclobutanol] | 6.00 to 6.30 | 80 | 32
10 | OC1CC(c2ccc(C(F)(F)F)cc2)(C(O)c2ccccn2)C1 [Example 201, trans-3-[(S)-hydroxy(pyridin-2-yl)methyl]-3-[4-(trifluoromethyl)phenyl]-cyclobutanol] | 4.70 to 5.29 | 73 | >85
11 | OC(c1ccccn1)C1(c2cccc(C(F)(F)F)c2)CC2(C1)OCCO2 (stereo not drawn) [Example 242, pyridin-2-yl{2-[3-(trifluoromethyl)phenyl]-5,8-dioxaspiro[3.4]oct-2-yl}-methanol] | 4.70 to 5.29 | 45 | <0.01
12 | OC(c1ccccn1)C1(c2ccc(OC(F)(F)F)cc2)CC2(C1)OCCO2 (stereo not drawn) [Example 202, pyridin-2-yl{2-[4-(trifluoromethoxy)phenyl]-5,8-dioxaspiro[3.4]oct-2-yl}-methanol] | 4.70 to 5.29 | 73 | <0.01
13 | Nc1cccnc1C(O)C1(c2ccc(Cl)c(Cl)c2)CCC1 (stereo not drawn) [Example 130, (3-aminopyridin-2-yl) [1-(3,4-dichlorophenyl)cyclobutyl]methanol] | 5.30 to 5.96 | 4.0 | <0.01
14 | Cn1c(C2(C(O)c3ccccn3)CCC2)nc2ccccc21 (stereo not drawn) [Example 275, [1-(1-methyl-1H-benzimidazol-2-yl)cyclobutyl](pyridin-2-yl)methanol] | 4.70 to 5.29 | 67 | 5.7
15 | O[C@H](c1ccccn1)C1(c2ccc(C(F)(F)F)cc2F)CCC1 [Example 27, (S)-{1-[2-fluoro-4-(trifluoromethyl)phenyl]cyclobutyl}(pyridin-2-yl)-methanol] | 5.30 to 5.96 | 13 | 15
16 | OC1CC(c2cccc(OC(F)(F)F)c2)(C(O)c2ccccn2)C1 [Example 273, trans-3-[(S)-hydroxy(pyridin-2-yl)methyl]-3-[3-(trifluoromethoxy)phenyl]-cyclobutanol] | 6.30 to 7.30 | 42 | 65
17 | O=C1CC(c2ccc(F)c(Cl)c2)(C(O)c2ccccn2)C1 (stereo not drawn) [Example 258, 3-(3-chloro-4-fluorophenyl)-3-[hydroxy(pyridin-2-yl)methyl]cyclobutanone] | 4.70 to 5.29 | 70 | 53
18 | N[C@@H]1CCC[C@@H]1[C@@H](O)C1(c2ccc(OC(F)(F)F)cc2)CCC1 [Example 221, (R)-[(1S,2R)-2-aminocyclopentyl]{1-[4-(trifluoromethoxy)phenyl]-cyclobutyl}methanol] | 5.30 to 5.96 | 83 | 56
19 | OC(c1ccccn1)C1(c2ccc(F)c(C(F)(F)F)c2)CCC1 (stereo not drawn) [Example 15, {1-[4-fluoro-3-(trifluoromethyl)phenyl]cyclobutyl}(pyridin-2-yl)methanol] | 6.30 to 7.30 | 5.6 | 1.2
